Reference: PubChem BioAssay (NCI)
Where “and” joins values, the source holds several entries; their conditions need not be identical. Equal entries are not always repeated.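 Briefly, cells in 96-well plates were exposed to five compound concentrations for 48 h, and endpoints were estimated by linear interpolation. GI50 is the concentration that inhibits growth by half. TGI is the concentration that stops growth completely.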

Experiments:
Assay in all cases: DTP human tumour cell line panel, 48 h
XF 498 CNS = test system: XF 498 CNS
M19-MEL melanoma = test system: M19-MEL melanoma
DMS 114 small cell lung = test system: DMS 114 small cell lung
DMS 273 small cell lung = test system: DMS 273 small cell lung
T-47D breast = test system: T-47D breast
HS 578T breast = test system: HS 578T breast
MDA-MB-231 breast = test system: MDA-MB-231 breast
PC-3 prostate = test system: PC-3 prostate
MDA-N = test system: MDA-N
MDA-MB-435 = test system: MDA-MB-435

| Compound | TGI (XF 498 CNS) [µM] | TGI (M19-MEL melanoma) [µM] | TGI (DMS 114 small cell lung) [µM] | TGI (DMS 273 small cell lung) [µM] | other results |
| --- | --- | --- | --- | --- | --- |
| CC(=O)C1C(=O)N(C(C)C)C[C@@H]2CCC(=O)C[C@H]12 (stereo partly specified) | > 100 | > 100 | > 100 | > 100 |  |
| CCOc1ccc(C(CN2CCOCC2)C(C)=O)cc1OC (stereo unspecified) | 40.8 | 34.1 | 34 | 23.3 |  |
| COc1ccc(CCN=C2CCC(C(=O)NCCc3ccc(OC)c(OC)c3)N2)cc1OC (stereo unspecified) | > 100 |  | > 100 | > 100 |  |
| CN1CCc2c1nc(-c1ccc([N+](=O)[O-])cc1)c1c2N(C)CC1 | > 100 | > 100 | > 100 |  |  |
| O=C(c1ccc(Cl)cc1)C1OC12C(=O)Nc1ccccc12 (stereo unspecified) | 25 | 23.3 | 26.2 | 25.4 | TGI (T-47D breast): 47.7 µM; TGI (HS 578T breast): 44.6 µM; TGI (MDA-MB-231 breast): 50.5 µM; TGI (PC-3 prostate): 41 µM; TGI (MDA-N): 14.5 µM; TGI (MDA-MB-435): 35.5 µM |
| FC1OC2OC1C(OCc1ccccc1)C(OCc1ccccc1)C2OCc1ccccc1 (stereo unspecified) | > 100 | > 100 | > 100 | > 100 |  |
| S=c1nc(-c2ccnc(-c3nc(=S)[nH][nH]3)c2)[nH][nH]1 | > 100 | > 100 | > 100 | > 100 |  |
| O=c1cc(-c2ccccn2)[nH]c2ccc(Cl)cc12 | > 100 | > 100 | 49 |  | GI50 (DMS 114 small cell lung): 13.9 µM |
| O=C1c2ccccc2C(=O)c2nc3ccc(Cl)cc3cc21 | > 100 | > 100 | > 100 | > 100 |  |
| N[C@@H]1CCCC[C@@H]1N.O=P([O-])([O-])CN(CP(=O)([O-])[O-])CP(=O)([O-])[O-].[Pt+2] | > 100 | > 100 |  | > 100 | GI50 (XF 498 CNS): > 100 µM; GI50 (M19-MEL melanoma): > 100 µM; GI50 (DMS 273 small cell lung): > 100 µM |
| Cc1cc(Cl)cc2c1NC(=O)C2=O (tested in a mixture with another compound) | 62.4 | 28.8 | 72.1 | > 100 |  |
| CC1CC[C@]2(C(=O)O)CCC3(C)C(=CCC4[C@@]5(C)CC[C@H](OS(=O)(=O)c6ccccc6)C(C)(C)C5CC[C@]43C)[C@@H]2[C@H]1C (stereo partly specified) | > 100 | > 100 | > 100 | > 100 |  |
| COc1ccccc1NC(=O)C(CC(C(=O)Nc1ccccc1OC)/C(C)=N/Nc1ccc([N+](=O)[O-])cc1[N+](=O)[O-])/C(C)=N/Nc1ccc([N+](=O)[O-])cc1[N+](=O)[O-] (stereo unspecified) | > 100 | > 100 |  | > 100 |  |
| COC(=O)CC(C(C(C)=O)C(=O)OCc1ccccc1)N1C(=O)OCC1c1ccccc1 (stereo unspecified) | > 100 | > 100 | > 100 | > 100 |  |
| COc1cc(/C=C(\C#N)C(N)=C(C#N)C#N)cc(O)c1O | > 100 | > 100 | > 100 | > 100 | TGI (T-47D breast): > 100 µM; TGI (HS 578T breast): > 100 µM; TGI (MDA-MB-231 breast): > 100 µM; TGI (PC-3 prostate): > 100 µM; TGI (MDA-N): > 100 µM; TGI (MDA-MB-435): > 100 µM |
| Nc1ccc(S(=O)(=O)Nc2cnc3c(Cl)cccc3n2)cc1 | 719 | > 625 | 202 | 467 | GI50 (T-47D breast): 48.2 µM; TGI (T-47D breast): > 750 µM; GI50 (HS 578T breast): 16.3 µM; TGI (HS 578T breast): > 79.5 µM and 504 µM; GI50 (MDA-MB-231 breast): 78.1 µM; TGI (MDA-MB-231 breast): > 750 µM; GI50 (PC-3 prostate): > 63.9 µM; TGI (PC-3 prostate): > 750 µM; GI50 (MDA-N): > 66.9 µM; TGI (MDA-N): > 566 µM; GI50 (MDA-MB-435): 31.5 µM; TGI (MDA-MB-435): > 750 µM |
| COc1cc2cc3c4c(cc(OC)c(OC)c4c2cc1OC)CCN3C(=O)CCC(=O)NCCCN(C)C | > 100 | 55.4 | > 100 | > 100 |  |
| COc1ccc2nc3ccccc3c(NCCCCN(C)CCCl)c2c1 | 0.293 | 0.602 |  | 0.283 | TGI (MDA-MB-435): 0.325 µM |
| COc1ccc(C2CCc3cc4c(cc3/C2=N/OC(C)=O)OCO4)cc1OC (stereo unspecified) | 57.5 | 71 | 51.9 | 78.1 |  |
| COC(=O)/C(=N/NC(N)=O)C(C(=O)OC)C(=O)C(=O)Nc1ccc(Cl)cc1 (stereo unspecified) | > 100 | > 100 | > 100 | > 100 |  |
| CCSC(SCC)=C1C(=O)N(c2ccccc2)N=C1C | 22.7 | 1.83 |  | 32 |  |
